Assay results from patent US11472811B2, “Pyrazolotriazolopyrimidine derivatives as A2A receptor antagonist” (BEIGENE, LTD., priority 2018, dated 2022).

Each compound was assayed against human A2A receptor (A2AR) (Homo sapiens (Human), UniProt P29274) (assay: Luciferase reporter assay (HEK293-A2AR-luc2p/CRE/Hygro cells)). Details: 3 nM CGS21680, 5 h incubation.
Assay type: cell-based
In short: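 HEK293 cells stably expressing human A2AR and a CRE-luc2P reporter were seeded in 1% FBS with 1 U/mL adenosine deaminase. After 18 h they were stimulated 5 h with 3 nM CGS21680 plus compound (0.1–10000 nM), then luciferase luminescence was read. IC50 was taken from inhibition curves, with CGS21680 alone set as 100%.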

Sequence of human A2A receptor (A2AR) (P29274 whole entry): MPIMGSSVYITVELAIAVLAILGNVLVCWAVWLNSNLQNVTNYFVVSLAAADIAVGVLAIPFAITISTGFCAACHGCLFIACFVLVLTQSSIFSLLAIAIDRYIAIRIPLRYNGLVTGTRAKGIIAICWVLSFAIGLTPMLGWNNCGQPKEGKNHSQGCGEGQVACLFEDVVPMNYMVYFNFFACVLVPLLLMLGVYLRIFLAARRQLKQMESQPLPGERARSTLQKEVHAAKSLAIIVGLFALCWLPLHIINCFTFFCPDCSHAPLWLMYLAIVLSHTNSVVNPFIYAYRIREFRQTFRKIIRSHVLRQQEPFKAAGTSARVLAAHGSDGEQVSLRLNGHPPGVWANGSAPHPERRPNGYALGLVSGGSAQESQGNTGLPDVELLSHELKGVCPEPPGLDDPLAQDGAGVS

For `C[C@](C(=O)NCc1ncccc1F)(c1ccccc1)n1ncc2c1nc(N)n1nc(-c3ccco3)nc21` [Example 119B, (R)-2-(5-amino-2-(furan-2-yl)-7H-pyrazolo[4,3-e][1,2,4]triazolo[1,5-c]pyrimidin-7-yl)-N-((3-fluoropyridin-2-yl)methyl)-2-phenylpropanamide], which IC50 is on record?
The IC50 was 2 nM.

`CC(C(=O)NC1(CO)CC1)(c1ccccc1)n1ncc2c1nc(N)n1nc(-c3ccco3)nc21` (stereo not shown) [Example 37, 2-(5-amino-2-(furan-2-yl)-7H-pyrazolo[4,3-e][1,2,4]triazolo[1,5-c]pyrimidin-7-yl)-N-(1-(hydroxymethyl)cyclopropyl)-2-phenylpropanamide] was tested. Which IC50 did it give?
The IC50 was 500 nM.

`C[C@](C(=O)NC1CCC(=O)CC1)(c1ccccc1)n1ncc2c1nc(N)n1nc(-c3ccco3)nc21` [Example 128B, (R)-2-(5-amino-2-(furan-2-yl)-7H-pyrazolo[4,3-e][1,2,4]triazolo[1,5-c]pyrimidin-7-yl)-N-(4-oxocyclohexyl)-2-phenylpropanamide] was tested. Which IC50 did it give?
The IC50 was 7.6 nM.

How did the IC50 turn out when `CC(C(=O)N[C@H]1CC[C@H](O)CC1)(c1ccccc1)n1ncc2c1nc(N)n1nc(-c3ccco3)nc21` (relative stereo) [Example 52, 2-(5-amino-2-(furan-2-yl)-7H-pyrazolo[4,3-e][1,2,4]triazolo[1,5-c]pyrimidin-7-yl)-(trans)-N-(4-hydroxycyclohexyl)-2-phenylpropanamide] was run?
Its IC50 is 6.7 nM.

Which IC50 does the source give for `Nc1nc2c(cnn2C(C(=O)NC2CCCc3ccccc32)c2ccccc2)c2nc(-c3ccco3)nn12` (stereo not shown) [Example 13, 2-(5-amino-2-(furan-2-yl)-7H-pyrazolo[4,3-e][1,2,4]triazolo[1,5-c]pyrimidin-7-yl)-2-phenyl-N-(1,2,3,4-tetrahydronaphthalen-1-yl)acetamide] here?
Its IC50 is 8.3 nM.

With `CC(C(=O)NCc1ccccc1)(c1ccccc1)n1ncc2c1nc(N)n1nc(-c3ccco3)nc21` (stereo not shown) [Example 35, 2-(5-amino-2-(furan-2-yl)-7H-pyrazolo[4,3-e][1,2,4]triazolo[1,5-c]pyrimidin-7-yl)-N-benzyl-2-phenylpropanamide] as the compound, how does the IC50 read?
Its IC50 is 10.7 nM.

With `CC(C(=O)NC1CCC(=O)CC1)(c1ccccc1)n1ncc2c1nc(N)n1nc(-c3ccco3)nc21` (stereo not shown) [Example 128, 2-(5-amino-2-(furan-2-yl)-7H-pyrazolo[4,3-e][1,2,4]triazolo[1,5-c]pyrimidin-7-yl)-N-(4-oxocyclohexyl)-2-phenylpropanamide] as the compound, how does the IC50 read?
Its IC50 is 12.8 nM.

With `CC(C(=O)NC[C@H]1CCOC1)(c1ccccc1)n1ncc2c1nc(N)n1nc(-c3ccco3)nc21` (stereo partly drawn) [Example 54, 2-(5-amino-2-(furan-2-yl)-7H-pyrazolo[4,3-e][1,2,4]triazolo[1,5-c]pyrimidin-7-yl)-2-phenyl-N—(((R)-tetrahydrofuran-3-yl)methyl)propanamide] as the compound, how does the IC50 read?
Its IC50 is 8.1 nM.

With `C[C@@H](O)CNC(=O)C(C)(c1ccccc1)n1ncc2c1nc(N)n1nc(-c3ccco3)nc21` (stereo partly drawn) [Example 38, 2-(5-amino-2-(furan-2-yl)-7H-pyrazolo[4,3-e][1,2,4]triazolo[1,5-c]pyrimidin-7-yl)-N—((R)-2-hydroxypropyl)-2-phenylpropanamide] as the compound, how does the IC50 read?
The IC50 was 22.6 nM.

Which IC50 does the source give for `Nc1nc2c(cnn2C(C(=O)N[C@H]2CCCC[C@H]2O)c2ccccc2)c2nc(-c3ccco3)nn12` (stereo partly drawn) [Example 91, 2-(5-amino-2-(furan-2-yl)-7H-pyrazolo[4,3-e][1,2,4]triazolo[1,5-c]pyrimidin-7-yl)-N-((1S,2R)-2-hydroxycyclohexyl)-2-phenylacetamide] here?
Its IC50 is 15.1 nM.

`Nc1nc2c(cnn2C2(C(=O)NCC3(O)COC3)CCCc3ccccc32)c2nc(-c3ccco3)nn12` (stereo not shown) [Example 93, 1-(5-amino-2-(furan-2-yl)-7H-pyrazolo[4,3-e][1,2,4]triazolo[1,5-c]pyrimidin-7-yl)-N-((3-hydroxyoxetan-3-yl)methyl)-1,2,3,4-tetrahydronaphthalene-1-carboxamide] was tested. Which IC50 did it give?
Its IC50 is 3.8 nM.

How did the IC50 turn out when `C[C@](C(=O)N[C@@H]1CCCC[C@@H]1O)(c1ccccc1)n1ncc2c1nc(N)n1nc(-c3ccco3)nc21` [Example 58B, (R)-2-(5-amino-2-(furan-2-yl)-7H-pyrazolo[4,3-e][1,2,4]triazolo[1,5-c]pyrimidin-7-yl)-N-((1R,2S)-2-hydroxycyclohexyl)-2-phenylpropanamide] was run?
Its IC50 is 1.3 nM.

With `C[C@](C(=O)NCc1ncccc1C(F)(F)F)(c1ccccc1)n1ncc2c1nc(N)n1nc(-c3ccco3)nc21` [Example 141B, (R)-2-(5-amino-2-(furan-2-yl)-7H-pyrazolo[4,3-e][1,2,4]triazolo[1,5-c]pyrimidin-7-yl)-2-phenyl-N-((3-(trifluoromethyl)pyridin-2-yl)methyl)propanamide] as the compound, how does the IC50 read?
Its IC50 is 1.1 nM.

Which IC50 does the source give for `CC(C(=O)NCc1cccnc1)(c1ccccc1)n1ncc2c1nc(N)n1nc(-c3ccco3)nc21` (stereo not shown) [Example 84, 2-(5-amino-2-(furan-2-yl)-7H-pyrazolo[4,3-e][1,2,4]triazolo[1,5-c]pyrimidin-7-yl)-2-phenyl-N-(pyridin-3-ylmethyl)propenamide] here?
The IC50 was 17 nM.

Which IC50 does the source give for `Nc1nc2c(cnn2C(C(=O)NCc2cccc(C(F)(F)F)c2)c2ccccc2)c2nc(-c3ccco3)nn12` (stereo not shown) [Example 22, 2-(5-amino-2-(furan-2-yl)-7H-pyrazolo[4,3-e][1,2,4]triazolo[1,5-c]pyrimidin-7-yl)-2-phenyl-N-(3-(trifluoromethyl)benzyl)acetamide] here?
The IC50 was 1.4 nM.

With `CC(C(=O)N[C@@H]1CCCC[C@@H]1O)(c1ccccc1)n1ncc2c1nc(N)n1nc(-c3ccco3)nc21` (stereo partly drawn) [Example 58, 2-(5-amino-2-(furan-2-yl)-7H-pyrazolo[4,3-e][1,2,4]triazolo[1,5-c]pyrimidin-7-yl)-N-((1R,2S)-2-hydroxycyclohexyl)-2-phenylpropanamide] as the compound, how does the IC50 read?
The IC50 was 1.8 nM.

With `Nc1nc2c(cnn2C(C(=O)NCc2ccc(F)cc2)c2ccccc2)c2nc(-c3ccco3)nn12` (stereo not shown) [Example 26, 2-(5-amino-2-(furan-2-yl)-7H-pyrazolo[4,3-e][1,2,4]triazolo[1,5-c]pyrimidin-7-yl)-N-(4-fluorobenzyl)-2-phenylacetamide] as the compound, how does the IC50 read?
The IC50 was 2.6 nM.

How did the IC50 turn out when `CC(C(=O)N[C@H]1C[C@@](C)(O)C1)(c1ccccc1)n1ncc2c1nc(N)n1nc(-c3ccco3)nc21` (stereo partly drawn) [Example 105, 2-(5-amino-2-(furan-2-yl)-7H-pyrazolo[4,3-e][1,2,4]triazolo[1,5-c]pyrimidin-7-yl)-N-((1S,3S)-3-hydroxy-3-methylcyclobutyl)-2-phenylpropanamide] was run?
Its IC50 is 10.7 nM.

For `COc1cccnc1CNC(=O)[C@@](C)(c1ccccc1)n1ncc2c1nc(N)n1nc(-c3ccco3)nc21` [Example 115B, (R)-2-(5-amino-2-(furan-2-yl)-7H-pyrazolo[4,3-e][1,2,4]triazolo[1,5-c]pyrimidin-7-yl)-N-((3-methoxypyridin-2-yl)methyl)-2-phenylpropanamide], which IC50 is on record?
Its IC50 is 3.3 nM.

With `CC(C(=O)NCc1ccccn1)(c1ccccc1)n1ncc2c1nc(N)n1nc(-c3ccco3)nc21` (stereo not shown) [Example 66, 2-(5-amino-2-(furan-2-yl)-7H-pyrazolo[4,3-e][1,2,4]triazolo[1,5-c]pyrimidin-7-yl)-2-phenyl-N-(pyridin-2-ylmethyl)propanamide] as the compound, how does the IC50 read?
The IC50 was 6.2 nM.

With `CC(C(=O)NCCN1CCOCC1)(c1ccccc1)n1ncc2c1nc(N)n1nc(-c3ccco3)nc21` (stereo not shown) [Example 41, 2-(5-amino-2-(furan-2-yl)-7H-pyrazolo[4,3-e][1,2,4]triazolo[1,5-c]pyrimidin-7-yl)-N-(2-morpholinoethyl)-2-phenylpropanamide] as the compound, how does the IC50 read?
The IC50 was 9.3 nM.

`CC(C(=O)N[C@H]1CC[C@@H](O)C1)(c1ccccc1)n1ncc2c1nc(N)n1nc(-c3ccco3)nc21` (stereo partly drawn) [Example 136, 2-(5-amino-2-(furan-2-yl)-7H-pyrazolo[4,3-e][1,2,4]triazolo[1,5-c]pyrimidin-7-yl)-N-((1S,3R)-3-hydroxycyclopentyl)-2-phenylpropanamide] was tested. Which IC50 did it give?
Its IC50 is 7.9 nM.

With `C[C@](C(=O)NCc1cc(F)ccn1)(c1ccccc1)n1ncc2c1nc(N)n1nc(-c3ccco3)nc21` [Example 118B, (R)-2-(5-amino-2-(furan-2-yl)-7H-pyrazolo[4,3-e][1,2,4]triazolo[1,5-c]pyrimidin-7-yl)-N-((4-fluoropyridin-2-yl)methyl)-2-phenylpropanamide] as the compound, how does the IC50 read?
Its IC50 is 6 nM.

With `CC(C(=O)N[C@H]1CC[C@@H](O)CC1)(c1ccccc1)n1ncc2c1nc(N)n1nc(-c3ccco3)nc21` (relative stereo) [Example 76, 2-(5-amino-2-(furan-2-yl)-7H-pyrazolo[4,3-e][1,2,4]triazolo[1,5-c]pyrimidin-7-yl)-(cis)-N-(4-hydroxycyclohexyl)-2-phenylpropanamide] as the compound, how does the IC50 read?
The IC50 was 5.2 nM.

With `C[C@](C(=O)NCCN1CCC(O)CC1)(c1ccccc1)n1ncc2c1nc(N)n1nc(-c3ccco3)nc21` [Example 148B, (R)-2-(5-amino-2-(furan-2-yl)-7H-pyrazolo[4,3-e][1,2,4]triazolo[1,5-c]pyrimidin-7-yl)-N-(2-(4-hydroxypiperidin-1-yl)ethyl)-2-phenylpropanamide] as the compound, how does the IC50 read?
The IC50 was 19.3 nM.

For `CC(C(=O)N[C@H]1CCCOC1)(c1ccccc1)n1ncc2c1nc(N)n1nc(-c3ccco3)nc21` (stereo partly drawn) [Example 59, 2-(5-amino-2-(furan-2-yl)-7H-pyrazolo[4,3-e][1,2,4]triazolo[1,5-c]pyrimidin-7-yl)-2-phenyl-N—((S)-tetrahydro-2H-pyran-3-yl)propanamide], which IC50 is on record?
The IC50 was 11.1 nM.

Which IC50 does the source give for `CC(C(=O)N[C@H]1CCCC[C@@H]1O)(c1ccccc1)n1ncc2c1nc(N)n1nc(-c3ccco3)nc21` (stereo partly drawn) [Example 57, 2-(5-amino-2-(furan-2-yl)-7H-pyrazolo[4,3-e][1,2,4]triazolo[1,5-c]pyrimidin-7-yl)-N-((1S,2S)-2-hydroxycyclohexyl)-2-phenylpropanamide] here?
Its IC50 is 29 nM.

How did the IC50 turn out when `CC(C(=O)NCC1(O)COC1)(c1ccccc1)n1ncc2c1nc(N)n1nc(-c3nccs3)nc21` (stereo not shown) [Example 133, 2-(5-amino-2-(thiazol-2-yl)-7H-pyrazolo[4,3-e][1,2,4]triazolo[1,5-c]pyrimidin-7-yl)-N-((3-hydroxyoxetan-3-yl)methyl)-2-phenylpropanamide] was run?
Its IC50 is 15 nM.
